Residues, ends and D or L forms follow the SMILES beside them.
System: acute myocardial infarction
Assay: Infarct size at revascularization, given with cyclosporine
Assay type: in vivo, human
Details: along with cyclosporine at the time of reperfusion
Protocol: Study group. Men and women, 18 years of age or older, who present within 6 hours after the onset of chest pain, who have ST-segment elevation of more than 0.1 mV in two contiguous leads, and for whom the clinical decision is made to treat with percutaneous coronary intervention (PCI) will be eligible for enrollment. Patients are eligible for the study whether they are undergoing primary PCI or rescue PCI. Occlusion of the affected coronary artery (Thrombolysis in Myocardial Infarction (TIMI) flow grade 0) at the time of admission is also a criterion for inclusion. Angiography and Revascularization. […] Either separately or simultaneously, cyclosporine (final concentration, […] will be injected through the catheter. Normal saline (0.9% NaCl) will be used as a control. The patients in the control group receive an equivalent volume of normal saline. Infarct Size. The primary end point will be the size of the infarct as assessed by measurements of cardiac biomarkers. Blood samples are obtained at admission and repeatedly over the next 3 days. The area under the curve (AUC) (expressed in arbitrary units) for creatine kinase and troponin I release (Beckman kit) will be measured in each patient by computerized planimetry. […] The images are analyzed in short axis slices covering the entire left ventricle. […]

N=C(N)NCCC[C@H](NC(=O)[C@@H](N)Cc1c[nH]c2ccccc12)C(=O)N[C@@H](Cc1c[nH]c2ccccc12)C(=O)N[C@@H](CCCCN)C(N)=O [SPN10, H-L-Trp-L-Arg-L-Trp-L-Lys-NH2] (H-WRWK-NH2)
infarct size versus placebo: smaller infarct

Source: patent publication US20240108740A1, “THERAPEUTIC COMPOSITIONS INCLUDING SPN10 AND USES THEREOF” (Stealth BioTherapeutics Inc., priority 2022, published 2024)
